What was measured:
Experiment in all cases: Microbiological challenge testing in BPW broth, graded subculture counts
Format in all cases: cell-based
[1] = test system: Staphylococcus epidermidis ATCC 12228
How it was run: (§1)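 Serial 1:10 dilutions were made in pH 7.2 phosphate buffer and spread-plated onto PCA, and colonies were counted after 48 h or more at 35 °C. In the challenge, BPW–dextrose tubes containing the test material received inoculum at 10^5–10^6 CFU/mL at time zero. Controls without test material served as reference.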

[2] = test system: Bacillus subtilis Wild type
How it was run: as §1

[3] = test system: Staphylococcus aureus ATCC 25923; conditions: S. aureus
How it was run: as §1

[4] = test system: Burkholderia cepacia Wild type; conditions: B. cepacia
How it was run: as §1

[5] = test system: Proteus vulgaris Wild type
How it was run: as §1

Aeromonas sp. Wild type = test system: Aeromonas sp. Wild type
How it was run: as §1

[6] = test system: Pseudomonas aeruginosa Wild type; conditions: P. aeruginosa
How it was run: as §1

Structure (SMILES): CC1(C)C(O)C(C)(C)C1O (stereo not drawn) [TMCBD, 2,2,4,4-tetramethyl-1,3-cyclobutanediol]
- S. epidermidis growth grade, 3 day ([1]; 0.5% weight/volume): 4 (1000 to 10,000 colonies countable (thus 10,000 CFU/mL to 100,000 CFU/mL))
- S. epidermidis growth grade, 13 day ([1]; 0.5% weight/volume): 4 (1000 to 10,000 colonies countable (thus 10,000 CFU/mL to 100,000 CFU/mL))
- S. epidermidis growth grade, 30 day ([1]; 0.5% weight/volume): 4 (1000 to 10,000 colonies countable (thus 10,000 CFU/mL to 100,000 CFU/mL))
- S. epidermidis growth grade, 3 day ([1]; 1.25% weight/volume): 2 (52 to 100 colonies counted (thus 520 to 1000 CFU/mL))
- S. epidermidis growth grade, 13 day ([1]; 1.25% weight/volume): 3 (100 to 1000 colonies (thus 1000 to 10,000 CFU/mL))
- S. epidermidis growth grade, 30 day ([1]; 1.25% weight/volume): 4 (1000 to 10,000 colonies countable (thus 10,000 CFU/mL to 100,000 CFU/mL))
- S. epidermidis growth grade, 3 day ([1]; 2.5% weight/volume): 2 (52 to 100 colonies counted (thus 520 to 1000 CFU/mL))
- S. epidermidis growth grade, 13 day ([1]; 2.5% weight/volume): 2 (52 to 100 colonies counted (thus 520 to 1000 CFU/mL))
- S. epidermidis growth grade, 30 day ([1]; 2.5% weight/volume): 2 (52 to 100 colonies counted (thus 520 to 1000 CFU/mL))
- S. epidermidis growth grade, 3 day ([1]; 5.0% weight/volume): 1 (0 to 51 colonies counted (thus 10 to 510 CFU/mL based on 0.1-mL sample))
- S. epidermidis growth grade, 13 day ([1]; 5.0% weight/volume): 0
- S. epidermidis growth grade, 30 day ([1]; 5.0% weight/volume): 0
- B. subtillis growth grade, 3 day ([2]; 0.5% weight/volume): 4 (1000 to 10,000 colonies countable (thus 10,000 CFU/mL to 100,000 CFU/mL))
- B. subtillis growth grade, 14 day ([2]; 0.5% weight/volume): 4 (1000 to 10,000 colonies countable (thus 10,000 CFU/mL to 100,000 CFU/mL))
- B. subtillis growth grade, 30 day ([2]; 0.5% weight/volume): 4 (1000 to 10,000 colonies countable (thus 10,000 CFU/mL to 100,000 CFU/mL))
- B. subtillis growth grade, 3 day ([2]; 1.25% weight/volume): 4 (1000 to 10,000 colonies countable (thus 10,000 CFU/mL to 100,000 CFU/mL))
- B. subtillis growth grade, 14 day ([2]; 1.25% weight/volume): 4 (1000 to 10,000 colonies countable (thus 10,000 CFU/mL to 100,000 CFU/mL))
- B. subtillis growth grade, 30 day ([2]; 1.25% weight/volume): 4 (1000 to 10,000 colonies countable (thus 10,000 CFU/mL to 100,000 CFU/mL))
- B. subtillis growth grade, 3 day ([2]; 2.5% weight/volume): 4 (1000 to 10,000 colonies countable (thus 10,000 CFU/mL to 100,000 CFU/mL))
- B. subtillis growth grade, 14 day ([2]; 2.5% weight/volume): 4 (1000 to 10,000 colonies countable (thus 10,000 CFU/mL to 100,000 CFU/mL))
- B. subtillis growth grade, 30 day ([2]; 2.5% weight/volume): 4 (1000 to 10,000 colonies countable (thus 10,000 CFU/mL to 100,000 CFU/mL))
- B. subtillis growth grade, 3 day ([2]; 5.0% weight/volume): 4 (1000 to 10,000 colonies countable (thus 10,000 CFU/mL to 100,000 CFU/mL))
- B. subtillis growth grade, 14 day ([2]; 5.0% weight/volume): 2 (52 to 100 colonies counted (thus 520 to 1000 CFU/mL))
- B. subtillis growth grade, 30 day ([2]; 5.0% weight/volume): 0
- Grade ([3]; 0.5% (wt/vol), 3 day): 4 (1000 to 10,000 colonies countable (thus 10,000 CFU/mL to 100,000 CFU/mL))
- Grade ([3]; 0.5% (wt/vol), 14 day): 4 (1000 to 10,000 colonies countable (thus 10,000 CFU/mL to 100,000 CFU/mL))
- Grade ([3]; 0.5% (wt/vol), 30 day): 4 (1000 to 10,000 colonies countable (thus 10,000 CFU/mL to 100,000 CFU/mL))
- Grade ([3]; 1.25% (wt/vol), 3 day): 4 (1000 to 10,000 colonies countable (thus 10,000 CFU/mL to 100,000 CFU/mL))
- Grade ([3]; 1.25% (wt/vol), 14 day): 4 (1000 to 10,000 colonies countable (thus 10,000 CFU/mL to 100,000 CFU/mL))
- Grade ([3]; 1.25% (wt/vol), 30 day): 4 (1000 to 10,000 colonies countable (thus 10,000 CFU/mL to 100,000 CFU/mL))
- Grade ([3]; 2.5% (wt/vol), 3 day): 2 (52 to 100 colonies counted (thus 520 to 1000 CFU/mL))
- Grade ([3]; 2.5% (wt/vol), 14 day): 1 (0 to 51 colonies counted (thus 10 to 510 CFU/mL based on 0.1-mL sample))
- Grade ([3]; 2.5% (wt/vol), 30 day): 1 (0 to 51 colonies counted (thus 10 to 510 CFU/mL based on 0.1-mL sample))
- Grade ([3]; 5.0% (wt/vol), 3 day): 0
- Grade ([3]; 5.0% (wt/vol), 14 day): 0
- Grade ([3]; 5.0% (wt/vol), 30 day): 0
- Grade ([4]; 0.5% (wt/vol), 3 day): 4 (1000 to 10,000 colonies countable (thus 10,000 CFU/mL to 100,000 CFU/mL))
- Grade ([4]; 0.5% (wt/vol), 14 day): 4 (1000 to 10,000 colonies countable (thus 10,000 CFU/mL to 100,000 CFU/mL))
- Grade ([4]; 0.5% (wt/vol), 30 day): 4 (1000 to 10,000 colonies countable (thus 10,000 CFU/mL to 100,000 CFU/mL))
- Grade ([4]; 1.25% (wt/vol), 3 day): 3 (100 to 1000 colonies (thus 1000 to 10,000 CFU/mL))
- Grade ([4]; 1.25% (wt/vol), 14 day): 2 (52 to 100 colonies counted (thus 520 to 1000 CFU/mL))
- Grade ([4]; 1.25% (wt/vol), 30 day): 4 (1000 to 10,000 colonies countable (thus 10,000 CFU/mL to 100,000 CFU/mL))
- Grade ([4]; 2.5% (wt/vol), 3 day): 1 (0 to 51 colonies counted (thus 10 to 510 CFU/mL based on 0.1-mL sample))
- Grade ([4]; 2.5% (wt/vol), 14 day): 0
- Grade ([4]; 2.5% (wt/vol), 30 day): 0
- Grade ([4]; 5.0% (wt/vol), 3 day): 1 (0 to 51 colonies counted (thus 10 to 510 CFU/mL based on 0.1-mL sample))
- Grade ([4]; 5.0% (wt/vol), 14 day): 0
- Grade ([4]; 5.0% (wt/vol), 30 day): 0
- P. vulgaris growth grade, 3 day ([5]; 0.5% weight/volume): 4 (1000 to 10,000 colonies countable (thus 10,000 CFU/mL to 100,000 CFU/mL))
- P. vulgaris growth grade, 13 day ([5]; 0.5% weight/volume): 4 (1000 to 10,000 colonies countable (thus 10,000 CFU/mL to 100,000 CFU/mL))
- P. vulgaris growth grade, 30 day ([5]; 0.5% weight/volume): 4 (1000 to 10,000 colonies countable (thus 10,000 CFU/mL to 100,000 CFU/mL))
- P. vulgaris growth grade, 3 day ([5]; 1.25% weight/volume): 3 (100 to 1000 colonies (thus 1000 to 10,000 CFU/mL))
- P. vulgaris growth grade, 13 day ([5]; 1.25% weight/volume): 2 (52 to 100 colonies counted (thus 520 to 1000 CFU/mL))
- P. vulgaris growth grade, 30 day ([5]; 1.25% weight/volume): 0
- P. vulgaris growth grade, 3 day ([5]; 2.5% weight/volume): 4 (1000 to 10,000 colonies countable (thus 10,000 CFU/mL to 100,000 CFU/mL))
- P. vulgaris growth grade, 13 day ([5]; 2.5% weight/volume): 1 (0 to 51 colonies counted (thus 10 to 510 CFU/mL based on 0.1-mL sample))
- P. vulgaris growth grade, 30 day ([5]; 2.5% weight/volume): 0
- P. vulgaris growth grade, 3 day ([5]; 5.0% weight/volume): 0
- P. vulgaris growth grade, 13 day ([5]; 5.0% weight/volume): 0
- P. vulgaris growth grade, 30 day ([5]; 5.0% weight/volume): 0
- Aeromonas sp growth grade, 3 day (Aeromonas sp. Wild type; 0.5% weight/volume): 5 (More than 10,000 colonies estimated (thus more than 100,000 CFU/mL))
- Aeromonas sp growth grade, 14 day (Aeromonas sp. Wild type; 0.5% weight/volume): 4 (1000 to 10,000 colonies countable (thus 10,000 CFU/mL to 100,000 CFU/mL))
- Aeromonas sp growth grade, 30 day (Aeromonas sp. Wild type; 0.5% weight/volume): 4 (1000 to 10,000 colonies countable (thus 10,000 CFU/mL to 100,000 CFU/mL))
- Aeromonas sp growth grade, 3 day (Aeromonas sp. Wild type; 1.25% weight/volume): 4 (1000 to 10,000 colonies countable (thus 10,000 CFU/mL to 100,000 CFU/mL))
- Aeromonas sp growth grade, 14 day (Aeromonas sp. Wild type; 1.25% weight/volume): 4 (1000 to 10,000 colonies countable (thus 10,000 CFU/mL to 100,000 CFU/mL))
- Aeromonas sp growth grade, 30 day (Aeromonas sp. Wild type; 1.25% weight/volume): 4 (1000 to 10,000 colonies countable (thus 10,000 CFU/mL to 100,000 CFU/mL))
- Aeromonas sp growth grade, 3 day (Aeromonas sp. Wild type; 2.5% weight/volume): 4 (1000 to 10,000 colonies countable (thus 10,000 CFU/mL to 100,000 CFU/mL))
- Aeromonas sp growth grade, 14 day (Aeromonas sp. Wild type; 2.5% weight/volume): 2 (52 to 100 colonies counted (thus 520 to 1000 CFU/mL))
- Aeromonas sp growth grade, 30 day (Aeromonas sp. Wild type; 2.5% weight/volume): 3 (100 to 1000 colonies (thus 1000 to 10,000 CFU/mL))
- Aeromonas sp growth grade, 3 day (Aeromonas sp. Wild type; 5.0% weight/volume): 2 (52 to 100 colonies counted (thus 520 to 1000 CFU/mL))
- Aeromonas sp growth grade, 14 day (Aeromonas sp. Wild type; 5.0% weight/volume): 0
- Aeromonas sp growth grade, 30 day (Aeromonas sp. Wild type; 5.0% weight/volume): 0
- Grade ([6]; 0.5% (wt/vol), 3 day): 5 (More than 10,000 colonies estimated (thus more than 100,000 CFU/mL))
- Grade ([6]; 0.5% (wt/vol), 13 day): 5 (More than 10,000 colonies estimated (thus more than 100,000 CFU/mL))
- Grade ([6]; 0.5% (wt/vol), 30 day): 5 (More than 10,000 colonies estimated (thus more than 100,000 CFU/mL))
- Grade ([6]; 1.25% (wt/vol), 3 day): 4 (1000 to 10,000 colonies countable (thus 10,000 CFU/mL to 100,000 CFU/mL))
- Grade ([6]; 1.25% (wt/vol), 13 day): 4 (1000 to 10,000 colonies countable (thus 10,000 CFU/mL to 100,000 CFU/mL))
- Grade ([6]; 1.25% (wt/vol), 30 day): 4 (1000 to 10,000 colonies countable (thus 10,000 CFU/mL to 100,000 CFU/mL))
- Grade ([6]; 2.5% (wt/vol), 3 day): 4 (1000 to 10,000 colonies countable (thus 10,000 CFU/mL to 100,000 CFU/mL))
- Grade ([6]; 2.5% (wt/vol), 13 day): 3 (100 to 1000 colonies (thus 1000 to 10,000 CFU/mL))
- Grade ([6]; 2.5% (wt/vol), 30 day): 4 (1000 to 10,000 colonies countable (thus 10,000 CFU/mL to 100,000 CFU/mL))
- Grade ([6]; 5.0% (wt/vol), 3 day): 3 (100 to 1000 colonies (thus 1000 to 10,000 CFU/mL))
- Grade ([6]; 5.0% (wt/vol), 13 day): 1 (0 to 51 colonies counted (thus 10 to 510 CFU/mL based on 0.1-mL sample))
- Grade ([6]; 5.0% (wt/vol), 30 day): 0

Reference: patent US20100160454A1, “ANTIMICROBIAL AGENTS, COMPOSITIONS AND PRODUCTS CONTAINING THE SAME, AND METHODS OF USING THE COMPOSITIONS AND PRODUCTS” (Eastman Chemical Company, priority 2008, published 2010)
